Results taken from patent publication US10647598B2, “Antimicrobial and algicidal agent for cooling water system” (KURITA WATER INDUSTRIES LTD., priority 2013, dated 2020).

Experiments:
[1] = test system: Algae A; assay: Test tube algicidal test on algae A sampled from cooling tower A; type: cell-based, diatoms, containing green algae; set-up: key to the marks not given beside the values; conditions: visual inspection after 3 days at north-side window; CSA and algicidal agent amounts per example as in Table 1
Procedure: (§1) A test water system containing algae was prepared as described below.
(§2) Secondary treated water obtained by filtrating sewage using a filter having a pore diameter of 0.1 μm was received in a beaker having a volume of 1 L, and to this secondary treated water, 1 g of algae sampled from each of cooling towers A, B, and C in which an antimicrobial treatment was performed using a chlorosulfamic acid was added. Algae A sampled from the cooling tower A were diatoms and contained green algae. Algae B sampled from the cooling tower B were primarily formed of green algae and contained blue-green algae and diatoms. Algae C sampled from the cooling tower C were primarily formed of blue-green algae and contained green algae and diatoms.
(§3) After being raveled and sufficiently dispersed in the beaker, the algae A, B, and C were each dispensed into test tubes.
(§4) In Examples 1 to 5 and Comparative Examples 8 to 11 and 13 to 16, a chlorosulfamic acid (abbreviated as “CSA”, and the addition amount represents the residual chlorine concentration) and one of 5-chloro-2-methyl-4-isothiazolone-3-one (abbreviated as “MIT”), 2,2-dibromo-3-nitrilopropion amide (abbreviated as “DBNPA”), and 2-bromo-2-nitro-1,3-propanediol (abbreviated as “BNP) were added to each test tube so as to have predetermined concentrations shown in Table 1. In Comparative Example 6, MIT was only added. In Comparative Example 7, DBNPA was only added. In Comparative Example 12, BNP was only added. In Comparative Example 17, no chemical agents were added. Subsequently, after the test tubes were left for 3 days at a north-side window so as not to be exposed to direct sunlight, the conditions of the algae were observed by visual inspection and evaluated in accordance with the following criteria.
(§5) <Evaluation Criteria> • −: Reduction (death) of algae is apparently observed from the start of the test. • ±: Condition is the same as that at the start of the test. • +: Slight increase of algae is observed as compared to the condition at the start of the test. • ++: Apparent increase of algae is observed as compared to the condition at the start of the test. • +++: Significant increase of algae is observed as compared to the condition at the start of the test.

[2] = test system: Algae C; assay: Test tube algicidal test on algae C sampled from cooling tower C; type: cell-based, blue-green algae, containing green algae and diatoms; set-up: key to the marks not given beside the values; conditions: visual inspection after 3 days at north-side window; CSA and algicidal agent amounts per example as in Table 1
Procedure: as §1, §2, §3, §4, §5

[3] = test system: Algae B; assay: Test tube algicidal test on algae B sampled from cooling tower B; type: cell-based, green algae, containing blue-green algae and diatoms; conditions: visual inspection after 3 days at north-side window; CSA and algicidal agent amounts per example as in Table 1
Procedure: as §1, §2, §3, §4, §5

[4] = test system: algae A to C; assay: Test tube algicidal test, overall assessment; type: cell-based; conditions: Table 1, algae A to C, 3 days
Procedure: as §1, §2, §3
In Examples 1 to 5 and Comparative Examples 8 to 11 and 13 to 16, a chlorosulfamic acid (abbreviated as “CSA”, and the addition amount represents the residual chlorine concentration) and one of 5-chloro-2-methyl-4-isothiazolone-3-one (abbreviated as “MIT”), 2,2-dibromo-3-nitrilopropion amide (abbreviated as “DBNPA”), and 2-bromo-2-nitro-1,3-propanediol (abbreviated as “BNP) were added to each test tube so as to have predetermined concentrations shown in Table 1. In Comparative Example 6, MIT was only added. In Comparative Example 7, DBNPA was only added. In Comparative Example 12, BNP was only added. In Comparative Example 17, no chemical agents were added. Subsequently, after the test tubes were left for 3 days at a north-side window so as not to be exposed to direct sunlight, the conditions of the algae were observed by visual inspection and evaluated in accordance with the following criteria. […]

SMILES | Evaluation Results Algae A [1] | Evaluation Results Algae C [2] | Evaluation Results Algae B [3] | Algicidal effect, assessment in words [4]
O=S(=O)(O)NCl [Comparative Example 1, chlorosulfamic acid] | +++ | +++ | ++ | –
Cn1sc(Cl)cc1=O [Comparative Example 6, 5-chloro-2-methyl-4-isothiazolone-3-one] | ++ | +++ | + | a sufficient effect cannot be obtained
N#CC(Br)(Br)C(N)=O [Comparative Example 7, 2,2-dibromo-3-nitrilopropion amide] | ++ | +++ | + | –
O=[N+]([O-])C(Br)(CO)CO [Comparative Example 12, 2-bromo-2-nitro-1,3-propanediol] | ++ | +++ | ++ | –
O=S(=O)(O)NCl [compound 2, chlorosulfamic acid] | +++ | +++ | ++ | –
O=S(=O)(O)NCl [compound 3, chlorosulfamic acid] | +++ | +++ | ++ | –
O=S(=O)(O)NCl [compound 4, chlorosulfamic acid] | +++ | ++ | + | a sufficient effect also cannot be obtained
O=S(=O)(O)NCl [compound 5, chlorosulfamic acid] | +++ | ++ | + | a sufficient effect also cannot be obtained
